Data as given in publication PMC12250129, “Exploring the Therapeutic Potential of ^177Lu-PSMA-617 in a Mouse Model of Prostate Cancer Bone Metastases” (International Journal of Molecular Sciences, 2025).

Test: Absorbed radiation dose calculations (OLINDA/EXM), extrapolated from mouse data
Design: species or system human
Details: 70 kg male adult
Protocol: Radiation doses (mGy/GBq) for major human organs (male) were calculated using the OLINDA/EXM Version 1.1 software. The organ-specific radiation absorbed doses following the administration of ^177Lu-PSMA-617 to humans were estimated based on residence times derived from mouse data and are presented in Table 1. […] The overall effective dose was 0.127 mSv/MBq. These findings provide critical insights into the dosimetry profile of ^177Lu-PSMA-617, aiding in the assessment of its safety and therapeutic potential.
The absorbed radiation dose calculations were performed as previously reported. For the estimation of mean absorbed doses in humans, the relative organ mass scaling method was used. The calculated mean value of the percentage injected activity per gram of tissue (%IA/g) for the organs in mice was extrapolated to the uptake amount in the organs of a 70 kg adult using the following formula:[(%IA/gorgan)animal × (kgTB weight)animal] × (gorgan/kgTB weight)human = (%IA/organ)human
The extrapolated values (%IA) in human organs at 1, 4, 24, and 48 h were fitted with exponential biokinetic models and integrated to obtain the number of disintegrations in the source organs; this information was entered into the OLINDA/EXM computer program. The integrals (MBq-s) for 11 organs, including heart contents (blood), the heart, the liver, the spleen, the lung, the kidney, muscle, the brain, bone, the small intestine, and the remainder of the body, were evaluated and used for the dosimetry evaluation.

O=C([O-])CN1CCN(CC(=O)[O-])CCN(CC(=O)NCC2CCC(C(=O)N[C@@H](Cc3ccc4ccccc4c3)C(=O)NCCCC[C@H](NC(=O)N[C@@H](CCC(=O)O)C(=O)O)C(=O)O)CC2)CCN(CC(=O)[O-])CC1.[177Lu+3] (stereo partly shown) [^177Lu-PSMA-617]
Estimated Dose (Adrenals): 8.15E−04 mSv/MBq
Estimated Dose (Brain): 3.54E−05 mSv/MBq
Estimated Dose (Breasts): 7.86E−03 mSv/MBq
Estimated Dose (Kidneys): 2.19E−04 mSv/MBq
Estimated Dose (LLI Wall): 2.01E−02 mSv/MBq
Estimated Dose (Liver): 5.81E−04 mSv/MBq
Estimated Dose (Lungs): 1.47E−03 mSv/MBq
Estimated Dose (Muscle): 6.33E−05 mSv/MBq
Estimated Dose (Osteogenic Cells): 4.98E−03 mSv/MBq
Estimated Dose (Pancreas): 8.27E−04 mSv/MBq
Estimated Dose (Red Marrow): 1.47E−02 mSv/MBq
Estimated Dose (Skin): 1.54E−03 mSv/MBq
Estimated Dose (Small Intestine): 8.52E−04 mSv/MBq
Estimated Dose (Spleen): 6.92E−05 mSv/MBq
Estimated Dose (Stomach Wall): 1.98E−02 mSv/MBq
Estimated Dose (Testes): 2.16E−02 mSv/MBq
Estimated Dose (Thymus): 8.01E−04 mSv/MBq
Estimated Dose (Thyroid): 8.08E−03 mSv/MBq
Estimated Dose (ULI Wall): 8.45E−04 mSv/MBq
Estimated Dose (Urinary Bladder Wall): 8.32E−03 mSv/MBq
Estimated Dose (Uterus): 8.48E−04 mSv/MBq
Effective Dose (overall effective dose): 1.27E−01 mSv/MBq
